In PubChem BioAssay (NCI):
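Step 1: Grow cells in 96-well plates. Step 2: Expose to compound for 48 hours at 5 concentrations. Step 3: Interpolate endpoints linearly; if unreached, use highest concentration. TGI is the concentration that stops growth completely.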

Columns and labels:
Assay in all cases: inhibition of tumour cell growth, NCI panel, 48 h
786-0 renal = tested on: 786-0 renal
A498 renal = tested on: A498 renal
A549 NSCLC = tested on: A549 NSCLC
ACHN renal = tested on: ACHN renal
CAKI-1 renal = tested on: CAKI-1 renal
CCRF-CEM leukemia = tested on: CCRF-CEM leukemia
COLO 205 colon = tested on: COLO 205 colon
DLD-1 colon = tested on: DLD-1 colon
DMS 114 small cell lung = tested on: DMS 114 small cell lung
DMS 273 small cell lung = tested on: DMS 273 small cell lung
EKVX NSCLC = tested on: EKVX NSCLC
HCC-2998 colon = tested on: HCC-2998 colon
HCT-116 colon = tested on: HCT-116 colon
HCT-15 colon = tested on: HCT-15 colon
HL-60(TB) leukemia = tested on: HL-60(TB) leukemia
HOP-18 NSCLC = tested on: HOP-18 NSCLC
HOP-62 NSCLC = tested on: HOP-62 NSCLC
HOP-92 NSCLC = tested on: HOP-92 NSCLC
HT29 colon = tested on: HT29 colon
IGROV1 ovarian = tested on: IGROV1 ovarian
K-562 leukemia = tested on: K-562 leukemia
KM12 colon = tested on: KM12 colon
KM20L2 colon = tested on: KM20L2 colon
LOX IMVI melanoma = tested on: LOX IMVI melanoma
LXFL 529 NSCLC = tested on: LXFL 529 NSCLC
M14 melanoma = tested on: M14 melanoma
M19-MEL melanoma = tested on: M19-MEL melanoma
MALME-3M melanoma = tested on: MALME-3M melanoma
NCI-H226 lung = tested on: NCI-H226 lung
NCI-H23 lung = tested on: NCI-H23 lung
NCI-H460 lung = tested on: NCI-H460 lung
NCI-H522 lung = tested on: NCI-H522 lung
OVCAR-3 ovarian = tested on: OVCAR-3 ovarian
OVCAR-4 ovarian = tested on: OVCAR-4 ovarian
OVCAR-5 ovarian = tested on: OVCAR-5 ovarian
OVCAR-8 ovarian = tested on: OVCAR-8 ovarian
RPMI-8226 leukemia = tested on: RPMI-8226 leukemia
RXF 393 renal = tested on: RXF 393 renal
RXF-631 renal = tested on: RXF-631 renal
SF-268 CNS = tested on: SF-268 CNS
SF-295 CNS = tested on: SF-295 CNS
SF-539 CNS = tested on: SF-539 CNS
SK-MEL-2 melanoma = tested on: SK-MEL-2 melanoma
SK-MEL-28 melanoma = tested on: SK-MEL-28 melanoma
SK-MEL-5 melanoma = tested on: SK-MEL-5 melanoma
SK-OV-3 ovarian = tested on: SK-OV-3 ovarian
SNB-19 CNS = tested on: SNB-19 CNS
SNB-75 CNS = tested on: SNB-75 CNS
SNB-78 CNS = tested on: SNB-78 CNS
SW-620 colon = tested on: SW-620 colon
TK-10 renal = tested on: TK-10 renal
U251 CNS = tested on: U251 CNS
UACC-257 melanoma = tested on: UACC-257 melanoma
UACC-62 melanoma = tested on: UACC-62 melanoma
UO-31 renal = tested on: UO-31 renal
XF 498 CNS = tested on: XF 498 CNS
MOLT-4 leukemia = tested on: MOLT-4 leukemia
SN12C renal = tested on: SN12C renal
SR leukemia = tested on: SR leukemia

Measured: TGI

O=C1OC(c2ccccc2)=N/C1=C/N1CCCC1C(=O)O (stereo not given)
> 100 µM: 786-0 renal | A498 renal | A549 NSCLC | ACHN renal | CAKI-1 renal | CCRF-CEM leukemia | COLO 205 colon | DLD-1 colon | DMS 114 small cell lung | DMS 273 small cell lung | EKVX NSCLC | HCC-2998 colon | HCT-116 colon | HCT-15 colon | HL-60(TB) leukemia | HOP-18 NSCLC | HOP-62 NSCLC | HOP-92 NSCLC | HT29 colon | IGROV1 ovarian | K-562 leukemia | KM12 colon | KM20L2 colon | LOX IMVI melanoma | LXFL 529 NSCLC | M14 melanoma | M19-MEL melanoma | MALME-3M melanoma | NCI-H226 lung | NCI-H23 lung | NCI-H460 lung | NCI-H522 lung | OVCAR-3 ovarian | OVCAR-4 ovarian | OVCAR-5 ovarian | OVCAR-8 ovarian | RPMI-8226 leukemia | RXF 393 renal | RXF-631 renal | SF-268 CNS | SF-295 CNS | SF-539 CNS | SK-MEL-2 melanoma | SK-MEL-28 melanoma | SK-MEL-5 melanoma | SK-OV-3 ovarian | SNB-19 CNS | SNB-75 CNS | SNB-78 CNS | SW-620 colon | TK-10 renal | U251 CNS | UACC-257 melanoma | UACC-62 melanoma | UO-31 renal | XF 498 CNS

Cc1cc(Cl)ccc1NC(=O)CCCC(=O)C(C(=O)c1ccccc1)c1ccccc1 (stereo not given)
> 100 µM: 786-0 renal | A498 renal | ACHN renal | CAKI-1 renal | CCRF-CEM leukemia | COLO 205 colon | DLD-1 colon | DMS 114 small cell lung | DMS 273 small cell lung | HCC-2998 colon | HCT-15 colon | HL-60(TB) leukemia | HOP-62 NSCLC | HOP-92 NSCLC | HT29 colon | IGROV1 ovarian | K-562 leukemia | KM12 colon | KM20L2 colon | LOX IMVI melanoma | LXFL 529 NSCLC | M14 melanoma | M19-MEL melanoma | MALME-3M melanoma | MOLT-4 leukemia | NCI-H23 lung | NCI-H460 lung | NCI-H522 lung | OVCAR-3 ovarian | OVCAR-4 ovarian | OVCAR-5 ovarian | RPMI-8226 leukemia | RXF-631 renal | SF-268 CNS | SF-295 CNS | SK-MEL-2 melanoma | SK-OV-3 ovarian | SN12C renal | SNB-78 CNS | U251 CNS | UACC-257 melanoma | UACC-62 melanoma

CCOC(=O)NC(=O)c1cn(C2OC(CO)C(O)C2O)c(=O)[nH]c1=O (stereo not given)
> 100 µM: 786-0 renal | A498 renal | A549 NSCLC | ACHN renal | CAKI-1 renal | DLD-1 colon | DMS 114 small cell lung | DMS 273 small cell lung | EKVX NSCLC | HCC-2998 colon | HCT-116 colon | HCT-15 colon | HL-60(TB) leukemia | HOP-62 NSCLC | HT29 colon | IGROV1 ovarian | K-562 leukemia | KM12 colon | KM20L2 colon | LOX IMVI melanoma | LXFL 529 NSCLC | M14 melanoma | M19-MEL melanoma | MALME-3M melanoma | MOLT-4 leukemia | NCI-H226 lung | NCI-H460 lung | NCI-H522 lung | OVCAR-3 ovarian | OVCAR-4 ovarian | OVCAR-5 ovarian | OVCAR-8 ovarian | RPMI-8226 leukemia | RXF 393 renal | RXF-631 renal | SF-268 CNS | SF-295 CNS | SF-539 CNS | SK-MEL-2 melanoma | SK-MEL-28 melanoma | SK-MEL-5 melanoma | SK-OV-3 ovarian | SN12C renal | SNB-19 CNS | SNB-75 CNS | SR leukemia | SW-620 colon | U251 CNS | UACC-257 melanoma | UACC-62 melanoma | UO-31 renal

[N-]=[N+]=Nc1c(Br)c(=O)[nH]c(=O)n1COCCO
> 100 µM: 786-0 renal | A549 NSCLC | ACHN renal | CAKI-1 renal | CCRF-CEM leukemia | COLO 205 colon | DLD-1 colon | DMS 114 small cell lung | DMS 273 small cell lung | HCC-2998 colon | HCT-116 colon | HL-60(TB) leukemia | HOP-18 NSCLC | HOP-62 NSCLC | HOP-92 NSCLC | HT29 colon | IGROV1 ovarian | K-562 leukemia | KM12 colon | LOX IMVI melanoma | LXFL 529 NSCLC | M14 melanoma | M19-MEL melanoma | MALME-3M melanoma | MOLT-4 leukemia | NCI-H23 lung | NCI-H460 lung | NCI-H522 lung | OVCAR-3 ovarian | OVCAR-4 ovarian | OVCAR-5 ovarian | OVCAR-8 ovarian | RXF 393 renal | RXF-631 renal | SF-268 CNS | SF-295 CNS | SF-539 CNS | SK-MEL-28 melanoma | SK-MEL-5 melanoma | SN12C renal | SNB-19 CNS | SNB-75 CNS | SNB-78 CNS | SR leukemia | SW-620 colon | TK-10 renal | U251 CNS | UACC-257 melanoma | UACC-62 melanoma | UO-31 renal | XF 498 CNS
